The record followed here is patent US9370606B2, “Scaffold-free self-organized 3D synthetic tissue” (Two Cells, Co., Ltd., priority 2003, dated 2016).

Assay [1] deals with synovium-derived synthetic tissue. In words: Influence of actin regulatory agents on contraction of a synthetic tissue. The class given is cell-based. Conditions: dihydrocytochalasin B 3 μM, Y27632 10 μM; after detachment. Here is the method:
Dihydrocytochalasin B and Y27632 (Yamanouchi Pharmaceutical), which are known to have an actin depolymerizing function, were used to study their influence on the contraction of a synthetic tissue.
A synovium-derived synthetic tissue was produced by monolayer culture. The tissue was detached from a culture dish. The tissue was cultured in medium in the presence of dihydrocytochalasin B (3 μM) and Y27632 (10 μM). The transition of the radius of the tissue is shown every unit culture time in FIG. 40. […] Dihydrocytochalasin B and Y27632 are representative exemplary actin polymerization inhibitors. It will be understood by those skilled in the art that other actin polymerization inhibitors, such as cytochalasin D and the like, have a similar function.

Assay [2] has as its system monolayer culture cells. In words: Conditions for detachment during production of a synthetic tissue. The class given is cell-based. Here is the method: In this example, it was determined whether or not chemical detachment can be used instead of physical detachment (mechanical detachment (e.g., pipetting, etc.)) during the production of the synthetic tissue of the present invention.
Cell density: 4×10^4 cells/cm^2
Conditions: CO2 5%, air 95%, 37° C.
Medium: DMEM/F12 (FBS 10%) supplemented with 10 ng/ml TGFβ1.
This medium was used to conduct culture under the conditions described in Examples 14 and 15 to produce a synthetic tissue.
Medium: DMEM (GIBCO), FBS (HyClone) 10%, ITS+Premix (insulin, transferrin, selenious acid) (BD Biosciences) 6.25 μg/ml, dexamethasone (Sigma) 10^−7 M, ascorbic acid (WAKO) 50 μg/ml, pyrubic acid (SIGMA) 100 μg/ml.

Assay [3] deals with synovial cells. In words: HE staining of synthetic tissue produced from synovial cells. It is filed as cell-based, pig. Here is the method: Synovial cells were collected from a knee joint of a pig (LWD ternary hybrid, 2-3 months old upon removal of cells), followed by treatment with collagenase. The cells were cultured and subcultured in 10% FBS-DMEM medium (FBS was obtained from HyClone, DMEM was obtained from GIBCO). It has been reported that 10th passage synovial cells still have pluripotency. Although cells of 10 or less passages were used in this example, cells of more than 10 passages may be used depending on the application. Autotransplantation was performed for humans, where a sufficient number of cells were used and the cells were cultured for a short period of time so as to reduce the risk of infection or the like. Synovial cells (4.0×10^6) were cultured in 2 ml of 10% FBS-DMEM medium in a 35-mm dish, a 60-mm dish, or 100-mm dish (BD Biosciences, culture dish and multiwell cell culture plate). In this case, ascorbic acid was added. The dishes, the ascorbic acid concentrations, and the cell concentration are described below. Ascorbic acid 2-phosphate: 0 mM, 0.1 mM, 0.5 mM; 1 mM, 2 mM, and 5 mM Medium was exchanged two times per week until the end of a predetermined culture period. At the end of the culture period, a cell sheet was detached from the dish by pipetting circumferentially around the dish using a 100-μl pipetteman. After detachment, the cell sheet was made as flat as possible by lightly shaking the dish. […]

For assay [4], the system named is synovial membrane-derived synthetic tissue. Description: Collagen content measurement (hydroxyproline) of synovial membrane-derived synthetic tissue. The class given is cell-based, pig. The protocol: In order to determine the collagen concentration, the collagen content was measured. […] The amount of produced collagen is substantially proportional to the time period of culture (FIG. 8). Next, it was determined whether or not collagen (extracellular matrix) is sufficiently secreted after implantation of a synthetic tissue of the present invention. The following protocol was used. Culture periods: 3 days, 7 days, 14 days, and 21 days, Concentrations of ascorbic acid 2-phosphate: 0 mM, 0.1 mM, 1 mM, and 5 mM Under the above-described conditions, a synovial membrane-derived synthetic tissue was produced. 6 N HCl was added to culture medium for the synthetic tissue, followed by hydrolysis at 105° C. for 18 hours. The medium was oxidized with chloramine T. Thereafter, the synthetic tissue was subjected to color development using Ehrlich's Reagent Solution (2 g of p-dimethylamino-benzaldehyde+3 ml of 60% perchloric acid; isopropanol was diluted at 3:13), followed by measurement of absorbance.

For the compound `C[C@@H](N)[C@H]1CC[C@H](C(=O)Nc2ccncc2)CC1` [Y27632], in assay [1], the “contraction of the synthetic tissue (radius over culture time)” value is on record as “inhibited”.

“TGF-β: transforming growth factor, 10 ng/ml TGFβ1 in medium”: the “detachment of monolayer culture cells from the culture dish” value in assay [2] (10 ng/ml TGFβ1 in DMEM/F12 (FBS 10%)) was “more easily detached”. For the same compound, in assay [2] (added in monolayer culture, no physical stimulus), the “effect on culture cells” value is given as “has the effect of detaching culture cells”.

In the case of `O=C1O[C@H]([C@@H](O)CO)C(O)=C1OP(=O)(O)O` [ascorbic acid 2-phosphate], the “formation of an extracellular matrix” value in assay [3] (0.1 mM or more) is recorded as “promoted”. The “Eosin staining of the synthetic tissue” value in assay [3] (concentration of more than 0.1 mM) is on record as “more intense”. For the same compound, the “quantities of collagen produced, dependence on concentration” value in assay [4] (0, 0.1, 1 and 5 mM, culture 3 to 21 days) came out at 0 mM<<5 mM<1 mM≦0.1 mM. The “production of collagen (amount of hydroxyproline)” value in assay [4] (0.1 mM or more added) is “significantly promoted”. Besides, in assay [4] (0.1 mM or more added, any of the culture periods), the “collagene content in the synthetic tissue” value is recorded as “significantly increased”.

For `C=C1[C@@H](C)[C@H]2[C@H](Cc3ccccc3)NC(=O)[C@]23OC(=O)CC[C@H](O)CCC[C@@H](C)C/C=C/[C@H]3[C@@H]1O` [dihydrocytochalasin B, Dihydrocytochalasin B], the “contraction of the synthetic tissue (radius over culture time)” value in assay [1] is given as “inhibited”.
